Key:
[1] = Liquid, Vibrating tube method
[2] = xn = mol fraction of the nth substance listed; details: Liquid, Vibrating tube method, x2 = 0

CN(CCO)CCO [N-methyldiethanolamine]
[1]
Details | mass density [kg/m3]
298.15 K, 100 kPa | 1036
303.15 K, 100 kPa | 1032.4
308.15 K, 100 kPa | 1028.6
313.15 K, 100 kPa | 1024.8
318.15 K, 100 kPa | 1021
323.15 K, 100 kPa | 1017.2
328.15 K, 100 kPa | 1013.3
333.15 K, 100 kPa | 1009.4
338.15 K, 100 kPa | 1005.6
343.15 K, 100 kPa | 1001.7
348.15 K, 100 kPa | 997.7
353.15 K, 100 kPa | 993.8
358.15 K, 100 kPa | 989.9
363.15 K, 100 kPa | 985.9
373.15 K, 700 kPa | 978.6
383.15 K, 700 kPa | 970.3
393.15 K, 700 kPa | 962.1
403.15 K, 700 kPa | 953.9
413.15 K, 700 kPa | 945.6
423.15 K, 700 kPa | 937

OCCNCCO [diethanolamine]
[1]
Details | mass density [kg/m3]
298.15 K, 100 kPa | 1093.6
303.15 K, 100 kPa | 1090.4
308.15 K, 100 kPa | 1087.1
313.15 K, 100 kPa | 1083.8
318.15 K, 100 kPa | 1080.6
323.15 K, 100 kPa | 1077.4
328.15 K, 100 kPa | 1074.1
333.15 K, 100 kPa | 1070.8
338.15 K, 100 kPa | 1067.4
343.15 K, 100 kPa | 1064
348.15 K, 100 kPa | 1060.6
353.15 K, 100 kPa | 1057.2
358.15 K, 100 kPa | 1053.7
363.15 K, 100 kPa | 1050.1
373.15 K, 700 kPa | 1043.3
383.15 K, 700 kPa | 1035.5
393.15 K, 700 kPa | 1028.1
403.15 K, 700 kPa | 1020.5
413.15 K, 700 kPa | 1012.9
423.15 K, 700 kPa | 1004.8

O [water] + CN(CCO)CCO
[2]
Details | mass density [kg/m3]
323.15 K, 100 kPa | 988
328.15 K, 100 kPa | 985.7
333.15 K, 100 kPa | 983.2
338.15 K, 100 kPa | 980.5
343.15 K, 100 kPa | 977.7
348.15 K, 100 kPa | 974.8
353.15 K, 100 kPa | 971.8
358.15 K, 100 kPa | 968.6
363.15 K, 100 kPa | 965.3
373.15 K, 700 kPa | 958.6
383.15 K, 700 kPa | 951.2
393.15 K, 700 kPa | 943.4
403.15 K, 700 kPa | 935.1
413.15 K, 700 kPa | 926.3
423.15 K, 700 kPa | 917.1

O [water] + OCCNCCO
[2]
Details | mass density [kg/m3]
323.15 K, 100 kPa | 988
328.15 K, 100 kPa | 985.7
333.15 K, 100 kPa | 983.2
338.15 K, 100 kPa | 980.5
343.15 K, 100 kPa | 977.7
348.15 K, 100 kPa | 974.8
353.15 K, 100 kPa | 971.8
358.15 K, 100 kPa | 968.6
363.15 K, 100 kPa | 965.3
373.15 K, 700 kPa | 958.6
383.15 K, 700 kPa | 951.2
393.15 K, 700 kPa | 943.4
403.15 K, 700 kPa | 935.1
413.15 K, 700 kPa | 926.3
423.15 K, 700 kPa | 917.1
